# Tested on: human umbilical vein endothelial cells (HUVECs)
# Assay: MTT assay, effect of VEGF and Composition A1 on cell proliferation
# Format: cell-based
# Conditions: 0, 24, 48 and 72 hours, control group as basis
# Protocol: Recombinant human vascular endothelial growth factor (VEGF) was purchased from R&D systems; Cat No. 293-VE. The HUVECs were used in the experiments. The cells were seeded in a 24-well plate at a density of 2×10^4 cells/well. The experiments include control group (not treated with VEGF) and the groups respectively treated with 1 ng/mL VEGF, 5 ng/mL VEGF, 10 ng/mL VEGF and 20 ng/mL VEGF for 0 hour, 24 hours, 48 hours and 72 hours. Each group was triplicated. The MTT assays were performed and values of OD 565 were measured in order to observe the effect of VEGF on cell growth.
substance,measurement,setting,value
VEGF,"cell number / cell proliferation of HUVEC (OD 565, MTT)",1 ng/mL VEGF,not significant
same,"cell number / cell proliferation of HUVEC (OD 565, MTT)",5 ng/mL VEGF,not significant
same,"cell number / cell proliferation of HUVEC (OD 565, MTT)",10 ng/mL VEGF,increased
same,"cell number / cell proliferation of HUVEC (OD 565, MTT)",20 ng/mL VEGF,increased
